Experimental data taken from article PMC9437094, “Docking study, molecular dynamic, synthesis, anti-α-glucosidase assessment, and ADMET prediction of new benzimidazole-Schiff base derivatives” (Scientific Reports, 2022).
Read-outs that look alike come from different tables or passages of the source.

How the values were obtained:
[1] = biological target: α-glucosidase from Saccharomyces cerevisiae (Saccharomyces cerevisiae, UniProt P53341); assay: biochemical; format: biochemical; settings: for IC50: substrate p-nitrophenyl glucopyranoside, 37 °C
Method: Next, absorbance was measured at 405 nm by spectrophotometer (Gen5, Power wave xs2, BioTek, USA), and IC50 value for each tested compound was calculated by taking advantage of the nonlinear regression curve (logit method).

[2] = tested on: HDF; assay: MTT cytotoxicity assay on HDF; format: cell-based; settings: HDF human normal cell line, at 200 μM
[3] = tested on: MCF-7; assay: MTT cytotoxicity assay on MCF-7; format: cell-based; settings: MCF-7 human cancer cell line, at 200 μM
[4] = biological target: α-glucosidase (Saccharomyces cerevisiae, UniProt P53341); assay: Enzyme kinetic study (Lineweaver–Burk and secondary plot); format: biochemical
Method: Furthermore, the plot of the Km versus different concentrations of compound 8p gave an estimate of Ki as the inhibition constant (Fig. 2b). Ki value for the latter compound was 60 µM.
A Lineweaver–Burk plot was generated to identify the type of inhibition and the Michaelis–Menten constant (Km) value was determined from plot between reciprocal of the substrate concentration (1/[S]) and reciprocal of enzyme rate (1/V) over various inhibitor concentrations. Experimental inhibitor constant (Ki) value was constructed by secondary plots of the inhibitor concentration [I] versus Km.

Chain of α-glucosidase (P53341 whole entry): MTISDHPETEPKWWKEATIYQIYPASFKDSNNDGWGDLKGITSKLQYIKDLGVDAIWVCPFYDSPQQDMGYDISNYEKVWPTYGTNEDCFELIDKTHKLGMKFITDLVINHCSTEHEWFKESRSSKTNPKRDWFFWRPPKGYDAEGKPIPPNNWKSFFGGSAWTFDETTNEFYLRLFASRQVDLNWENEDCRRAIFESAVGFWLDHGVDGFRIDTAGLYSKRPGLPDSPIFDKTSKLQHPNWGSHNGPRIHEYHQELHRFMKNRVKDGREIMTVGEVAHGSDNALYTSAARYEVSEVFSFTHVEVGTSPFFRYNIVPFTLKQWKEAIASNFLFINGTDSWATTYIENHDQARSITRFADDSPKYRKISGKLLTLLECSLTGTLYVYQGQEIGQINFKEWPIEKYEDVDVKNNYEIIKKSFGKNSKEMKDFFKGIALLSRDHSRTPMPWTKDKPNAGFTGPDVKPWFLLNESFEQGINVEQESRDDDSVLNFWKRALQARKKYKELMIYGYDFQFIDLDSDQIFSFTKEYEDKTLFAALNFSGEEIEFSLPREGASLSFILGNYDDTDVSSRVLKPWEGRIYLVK
Chain of α-glucosidase from Saccharomyces cerevisiae (P53341 whole entry): as above

For `COc1ccc(-c2nc3cc(C(=O)N/N=C/c4cc5c(cc4[N+](=O)[O-])OCO5)ccc3[nH]2)cc1` [Compound 8o, (E)-2-(4-methoxyphenyl)-N'-((6-nitrobenzo[d][1,3]dioxol-5-yl)methylene)-1H-benzo[d]imidazole-5-carbohydrazide], the IC50 ([1]; IC50, yeast α-glucosidase) was 123 ± 6.1 µM and the melting point was > 250 °C.

For `COc1ccc(-c2nc3cc(C(=O)N/N=C/c4ccc(F)cc4)ccc3[nH]2)cc1` [Compound 8j, (E)-N'-(4-fluorobenzylidene)-2-(4-methoxyphenyl)-1H-benzo[d]imidazole-5-carbohydrazide], the IC50 ([1]; IC50, yeast α-glucosidase) was 84.1 ± 4.5 µM and the melting point was > 250 °C.

In the case of `COc1ccc(-c2nc3cc(C(=O)N/N=C/c4cccc(F)c4)ccc3[nH]2)cc1` [Compound 8i, (E)-N'-(3-fluorobenzylidene)-2-(4-methoxyphenyl)-1H-benzo[d]imidazole-5-carbohydrazide], the IC50 ([1]; IC50, yeast α-glucosidase) is reported as 88.1 ± 6 µM and the melting point is reported as > 250 °C.

In the case of `COc1ccc(-c2nc3cc(C(=O)N/N=C/c4ccc([N+](=O)[O-])cc4)ccc3[nH]2)cc1` [Compound 8n, (E)-2-(4-methoxyphenyl)-N'-(4-nitrobenzylidene)-1H-benzo[d]imidazole-5-carbohydrazide], the IC50 ([1]; IC50, yeast α-glucosidase) is reported as 112 ± 5.7 µM and the melting point is reported as > 250 °C.

For `COc1ccc(-c2nc3cc(C(=O)N/N=C/c4cccc(Br)c4)ccc3[nH]2)cc1` [Compound 8m, (E)-N'-(3-bromobenzylidene)-2-(4-methoxyphenyl)-1H-benzo[d]imidazole-5-carbohydrazide], the IC50 ([1]; IC50, yeast α-glucosidase) was 97 ± 4.4 µM and the melting point was > 250 °C.

In the case of `COc1ccc(-c2nc3cc(C(=O)N/N=C/c4ccc(O)c(OC)c4)ccc3[nH]2)cc1` [Compound 8g, (E)-N'-(4-hydroxy-3-methoxybenzylidene)-2-(4-methoxyphenyl)-1H-benzo[d]imidazole-5-carbohydrazide], the IC50 ([1]; yeast α-glucosidase, read-out: IC50) is reported as 287 ± 7.4 µM and the melting point is reported as > 250 °C.

For `COc1ccc(-c2nc3cc(C(=O)N/N=C/c4cccc(Oc5ccccc5)c4)ccc3[nH]2)cc1` [Compound 8e, (E)-2-(4-methoxyphenyl)-N'-(3-phenoxybenzylidene)-1H-benzo[d]imidazole-5-carbohydrazide], the IC50 ([1]; IC50, yeast α-glucosidase) was 127 ± 6.5 µM and the melting point was > 250 °C.

With `COc1ccc(-c2nc3cc(C(=O)N/N=C/c4ccc(Cl)cc4)ccc3[nH]2)cc1` [Compound 8l, (E)-N'-(4-chlorobenzylidene)-2-(4-methoxyphenyl)-1H-benzo[d]imidazole-5-carbohydrazide] the IC50 ([1]; IC50, yeast α-glucosidase) was 103 ± 5.5 µM and the melting point was > 250 °C.

In the case of `COc1ccc(-c2nc3cc(C(=O)N/N=C/c4ccc(C)cc4)ccc3[nH]2)cc1` [Compound 8b, (E)-2-(4-methoxyphenyl)-N'-(4-methylbenzylidene)-1H-benzo[d]imidazole-5-carbohydrazide], the IC50 ([1]; IC50, yeast α-glucosidase) is reported as 102 ± 5.6 µM and the melting point is reported as > 250 °C.

With `COc1ccc(-c2nc3cc(C(=O)N/N=C/c4ccccc4)ccc3[nH]2)cc1` [Compound 8a, (E)-N'-benzylidene-2-(4-methoxyphenyl)-1H-benzo[d]imidazole-5-carbohydrazide] the IC50 ([1]; IC50, yeast α-glucosidase) was 70.6 ± 6.8 µM, the “cytotoxicity (MTT)” value [2] was “non-cytotoxic” and the “cytotoxicity (MTT)” value [3] was “non-cytotoxic”. The melting point was > 250 °C.

In the case of `COc1ccc(/C=N/NC(=O)c2ccc3[nH]c(-c4ccc(OC)cc4)nc3c2)cc1` [Compound 8c, (E)-N'-(4-methoxybenzylidene)-2-(4-methoxyphenyl)-1H-benzo[d]imidazole-5-carbohydrazide], the IC50 ([1]; IC50, yeast α-glucosidase) is reported as 110 ± 5.5 µM and the melting point is reported as > 250 °C.

For `COc1ccc(-c2nc3cc(C(=O)N/N=C/c4cc(OC)c(OC)c(OC)c4)ccc3[nH]2)cc1` [Compound 8d, (E)-2-(4-methoxyphenyl)-N'-(3,4,5-trimethoxybenzylidene)-1H-benzo[d]imidazole-5-carbohydrazide], the “inhibitory activity against α-glucosidase (in words)” value ([1]; yeast α-glucosidase) was “inactive”.

With `COc1ccc(-c2nc3cc(C(=O)N/N=C/c4ccccc4F)ccc3[nH]2)cc1` [Compound 8h, (E)-N'-(2-fluorobenzylidene)-2-(4-methoxyphenyl)-1H-benzo[d]imidazole-5-carbohydrazide] the IC50 ([1]; IC50, yeast α-glucosidase) was 69 ± 4 µM, the “cytotoxicity (MTT)” value [2] was “non-cytotoxic” and the “cytotoxicity (MTT)” value [3] was “non-cytotoxic”.

In the case of `COc1ccc(-c2nc3cc(C(=O)N/N=C/c4cccs4)ccc3[nH]2)cc1` [Compound 8p, (E)-2-(4-methoxyphenyl)-N'-(thiophen-2-ylmethylene)-1H-benzo[d]imidazole-5-carbohydrazide], the IC50 ([1]; IC50, yeast α-glucosidase) is reported as 60.1 ± 3.6 µM, the type of inhibition ([4]; Lineweaver–Burk plot) is reported as “competitive inhibitor” and the Ki ([4]; secondary plot of Km versus inhibitor concentration) is reported as 60 µM. For the same compound, the “cytotoxicity (MTT)” value [2] was “non-cytotoxic”, the “cytotoxicity (MTT)” value [3] was “non-cytotoxic” and the melting point was > 250 °C.

For `COc1ccc(-c2nc3cc(C(=O)N/N=C/c4ccccc4Cl)ccc3[nH]2)cc1` [Compound 8k, (E)-N'-(2-chlorobenzylidene)-2-(4-methoxyphenyl)-1H-benzo[d]imidazole-5-carbohydrazide], the IC50 ([1]; IC50, yeast α-glucosidase) was 90 ± 7.5 µM and the melting point was > 250 °C.

With `COc1ccc(-c2nc3cc(C(=O)N/N=C/c4cccc(O)c4)ccc3[nH]2)cc1` [Compound 8f, (E)-N'-(3-hydroxybenzylidene)-2-(4-methoxyphenyl)-1H-benzo[d]imidazole-5-carbohydrazide] the IC50 ([1]; IC50, yeast α-glucosidase) was 181 ± 8.5 µM.
